From patent publication US9526739B2, “Compositions and methods to treat cardiac diseases” (University of Connecticut, priority 2010, dated 2016)
Several values for one entry are separate records, joined by “and”; a condition that tells them apart may be missing. Equal values may be shown once. Entries after “also recorded” stand apart in the source; their conditions may differ.

How the values were obtained:
mouse cardiac myocytes = settings: voltage clamp; cited from earlier work
CSQ heart failure mice [1] = experiment: Echocardiography-derived fractional shortening in CSQ heart failure mice after 28 days of subcutaneous minipump infusion; format: in vivo, mouse; settings: for FS in % in CSQ Mice: at 3.3 μM, subcutaneous Alzet minipump infusion, 28 days, vehicle control 13.78 ± 1.19% (n = 16); for cardioprotection in the CSQ model (in words) / effect on echocardiography-derived FS / cardiac contractile function versus normal saline (in words): 3.3 μM, 28 days of infusion, CSQ mice
Source text: Two of the phosphonates, 4 and 9, were able to cause an improved FS as compared to vehicle (FIG. 1, Table 1) and in comparison to the reference nucleotide 3. […] Thus, in the saturated phosphonate series, the orientation of the phosphorous relative to the methanocarba ring was somewhat structurally permissive, although inclusion of an olefin in the spacer prevented the cardioprotective action. In 11, one OH group of the phosphonate has been replaced with CH3. This reduces the overall charge on the molecule and is intended to make it more bioavailable. Evidently, the binding site of the receptor requires both oxygens for the most favorable improvement in FS. Therefore, as summarized in FIG. 1, the most significant improvement in FS was associated with the saturated homologues containing a 2-Cl substitution and an unmodified phosphonate group, 4 and 9.
Compound 3 and its analogues were dissolved in phosphate-buffered saline, pH=7.4 at 3.3 μM (200 μL total volume), filtered for sterility for in vivo administration at 6 μL per day for 28 days via a mini-osmotic pump (Alzet) in the CSQ mice. Intact heart function in vivo was assessed by echocardiography following infusion of nucleotide- or vehicle

CSQ heart failure mice [2] = experiment: Echocardiography (FS, LV wall thickness) in CSQ heart failure mice after 14 days of infusion; settings: for effect on LV fractional shortening versus normal saline (in words) / cardioprotection in CSQ mice (in words): 14 days (two-week) infusion; for prevention of LV wall thinning in heart failure (in words): two-week infusion; for FS in % in CSQ Mice: at 10μM, 14 days of infusion, vehicle control 7.13 ± 1.49% (n = 4), phenotypically more severe CSQ mice than in Table 1
aorta ring preparations = settings: cited from earlier work
human P2Y1 receptor = molecular target: T1, human P2Y1 receptor (Homo sapiens, UniProt P47900); experiment: FLIPR assay of calcium flux in 1321N1 astrocytoma cells stably expressing the human P2Y1 receptor; format: cell-based
T1 construct: T. K. Harden, University of North Carolina School of Medicine; host or cells: 1321N1 human astrocytoma cells
Experimental: The phosphonate derivatives were tested in a FLIPR assay of calcium flux induced in 1321N1 astrocytoma cells stably expressing the human P2Y1 receptor.
Cells were grown overnight in 100 ml of medium in 96-well flatbottom plates at 37° C. at 5% CO2 or until they reached ˜80% confluency. The calcium-4 assay kit (Molecular Devices, Sunnyvale, Calif.) was used as directed with no washing of cells. Cells were loaded with 40 mL dye with probenecid in each well and incubated for 1 h at rt. The compound plate was prepared with dilutions of various compounds in Hank's Buffer at pH 7.2. Samples were run in duplicate with a FLIPR-Tetra (Molecular Devices) at rt. Cell fluorescence (excitation=485 nm; emission=525 nm) was monitored following exposure to a compound. Increases in intracellular calcium are reported as the maximum fluorescence value after exposure minus the basal fluorescence value before exposure.

hP2Y1 receptor = molecular target: T2, hP2Y1 receptor (Homo sapiens, UniProt P47900); settings: initial characterization, previously reported; read-out: EC50, hP2Y1 receptor agonist, PLC; cited from earlier work
T2 construct: host or cells: said to be the same cell line as the calcium assay (1321N1 astrocytoma cells expressing hP2Y1)

CSQ myocyte = settings: similar to that by compound 1, characteristic of the P2X4 receptor; cited from earlier work
CSQ-overexpressing mouse = settings: cited from earlier work
[3] = Hydrolysis on incubation at 37° C. with mammalian cell membranes (1321N1 astrocytoma cells); format: in vitro ADME; settings: 1321N1 astrocytoma cell membranes
Source text: (§1) The synthetic nucleotide analogue 3 activates the native cardiac P2X receptor, as indicated in electrophysiological experiments with normal cardiac myocytes and those that overexpress CSQ and based on its in vivo ability to improve the heart failure phenotype of these animals. The rigid carbocyclic ring system contained in this derivative stabilizes nucleotides toward the action of nucleotidases. […] In the present study, we have synthesized fully hydrolysis-resistant adenosine monophosphate derivatives based on phosphonate linkages.
Further, the 5′-phosphate 3 and the prodrug 9a (MRS2944) are stable to acidic conditions representative of stomach acid (pH 1.5). […] Without being held to theory, it is believed that the prodrug approach will allow the masked drug to pass through the stomach to be absorbed intact in the intestines, and for the charged phosphoryl group to remain intact until the free drug reaches the site of action in the heart. Therefore, the stable phosphonates would be suitable in this scheme. The cleavage of the prodrug derivatives is to occur in circulation prior to reaching the tissue site of action, because intracellular internalization would be undesirable. Therefore, many of the prodrug schemes that aim for penetration of the masked drug into the cells, i.e. for antiviral or anticancer application of nucleotide derivatives, would likely not be suitable here.

[4] = Stability in aqueous medium at pH 1.5 (simulated stomach acid); format: physicochemical; settings: pH 1.5, over 24 hours
Source text: as §1

[5] = system: control 1321N1 astrocytoma cells; experiment: Intracellular Ca2+ response in control 1321N1 astrocytoma cells; format: cell-based, human; settings: 10 μM, untransfected control 1321N1 astrocytoma cells
[6] = 2-week infusion, CSQ mice, NS-infused 0.450±0.007 mm, P<0.05

T1 sequence (P47900 whole entry): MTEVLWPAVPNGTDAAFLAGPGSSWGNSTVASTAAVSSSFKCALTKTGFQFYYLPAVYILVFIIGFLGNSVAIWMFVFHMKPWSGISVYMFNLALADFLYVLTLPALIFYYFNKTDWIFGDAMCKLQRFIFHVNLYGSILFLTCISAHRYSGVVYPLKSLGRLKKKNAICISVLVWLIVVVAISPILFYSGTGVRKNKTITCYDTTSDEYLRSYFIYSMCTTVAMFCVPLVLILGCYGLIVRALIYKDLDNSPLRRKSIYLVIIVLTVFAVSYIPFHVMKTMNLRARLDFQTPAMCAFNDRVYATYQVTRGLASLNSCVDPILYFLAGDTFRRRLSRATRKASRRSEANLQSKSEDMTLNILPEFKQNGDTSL
T2 sequence (P47900 whole entry): as above

CNc1nc(I)nc2c1ncn2[C@H]1C[C@H](OP(=O)(O)O)[C@]2(COP(=O)(O)O)C[C@H]12 [MRS2500]
block of the membrane current evoked by 3 (mouse cardiac myocytes): could not block the membrane current evoked by 3

Nc1ncnc2c1ncn2[C@H]1[C@H](O)[C@H](O)C2(CP(=O)(O)O)C[C@H]12 (stereo partly drawn) [Compound 5, (1′S,2′R,3′S,4′R,5′S)-4′-(6-Aminopurin-9-yl)-2′,3′-(dihydroxy)-1′-(phosphonomethylene)-bicyclo[3.1.0]hexane]
FS in % in CSQ Mice (CSQ heart failure mice [1]): 16.23 ± 0.93%

Nc1ncnc2c1ncn2[C@H]1[C@H](O)[C@H](O)C2(/C=C/P(=O)(O)O)C[C@H]12 (stereo partly drawn) [Compound 8, (1′S,2′R,3′S,4′R,5′S)-4′-(6-Aminopurin-9-yl)-2′,3′-(dihydroxy)-1′-[(E)-phosphonoethenyl]-bicyclo[3.1.0]hexane]
cardioprotection in the CSQ model (in words) (CSQ heart failure mice [1]): not protective
effect on echocardiography-derived FS / cardiac contractile function versus normal saline (in words) (CSQ heart failure mice [1]): lower FS values
FS in % in CSQ Mice (CSQ heart failure mice [1]): 13.88 ± 2.12%

Nc1nc(Cl)nc2c1ncn2[C@H]1[C@H](O)[C@H](O)C2(/C=C/P(=O)(O)O)C[C@H]12 (stereo partly drawn) [Compound 7, (1′S,2′R,3′S,4′R,5′S)-4′-(6-Amino-2-chloropurin-9-yl)-2′,3′-(dihydroxy)-1′-[(E)-phosphonoethenyl]-bicyclo[3.1.0]-hexane]
effect on LV fractional shortening versus normal saline (in words) (CSQ heart failure mice [2]; CSQ mice): did not improve FS
prevention of LV wall thinning in heart failure (in words) (CSQ heart failure mice [2]; CSQ mice): did not improve FS or prevent LV wall thinning
cardioprotection in the CSQ model (in words) (CSQ heart failure mice [1]): not protective
effect on echocardiography-derived FS / cardiac contractile function versus normal saline (in words) (CSQ heart failure mice [1]): lower FS values
FS in % in CSQ Mice (CSQ heart failure mice [1]): 12.12 ± 1.2%

Nc1nc(Cl)nc2c1ncn2[C@H]1[C@H](O)[C@H](O)C2(COP(=O)(O)O)C[C@H]12 (stereo partly drawn) [Compound 3, (1′S, 2′R,3′S,4′R,5′S)-4-(6-amino-2-chloro-9H-purin-9-yl)-1-[phosphoryloxymethyl]bicyclo[3.1.0]hexane-2,3-diol]
vasodilator action (aorta ring preparations): inability to dilate aortic rings; also recorded: devoid of any vasodilator action
Emax (human P2Y1 receptor; 1321-N1, read-out: maximal effect relative to the full agonist 2-MeSADP, hP2Y1 calcium flux): ~80%
EC50 (human P2Y1 receptor; 1321N1 cells stably expressing hP2Y1, FLIPR-Tetra, n=3, read-out: EC50, Ca2+ flux, hP2Y1 receptor): 0.722 ± 0.055 µM
EC50 (hP2Y1 receptor): 1.89 µM
current in the CSQ myocyte (CSQ myocyte): induced a current
longevity compared to vehicle-injected mice (CSQ-overexpressing mouse; Alzet mini-osmotic pump): significantly increased longevity
cross-section area of the cardiac myocytes (CSQ-overexpressing mouse; chronic administration): decreases
heart weight/body weight ratio (CSQ-overexpressing mouse; chronic administration): decreases
hypertrophic and heart failure phenotype (CSQ-overexpressing mouse; chronically administered): rescued the hypertrophic and heart failure phenotype
FS in % in CSQ Mice (CSQ heart failure mice [1]): 15.47 ± 1.15%
hydrolysis in the presence of mammalian cell membranes [3]: considerable hydrolysis
stability to acidic conditions [4]: stable

Nc1nc(Cl)nc2c1ncn2[C@H]1[C@H](O)[C@H](O)C2(CP(=O)(O)O)C[C@H]12 (stereo partly drawn) [Compound 4, (1′S,2′R,3′S,4′R,5′S)-4′-(6-Amino-2-chloropurin-9-yl)-2′,3′-(dihydroxy)-1′-(phosphonomethylene)-bicyclo[3.1.0]hexane]
cardioprotection in the CSQ model (in words) (CSQ heart failure mice [1]): active
effect on echocardiography-derived FS / cardiac contractile function versus normal saline (in words) (CSQ heart failure mice [1]): increased shortening of both the septum and left ventricular (LV) free wall; also recorded: able to improve in vivo cardiac contractile performance; also recorded: improved echocardiographically derived FS
FS in % in CSQ Mice (CSQ heart failure mice [1]): 20.25% and 20.25 ± 1.19%

CSc1nc(N)c2ncn([C@@H]3O[C@H](COP(=O)(O)OP(=O)(O)O)[C@@H](O)[C@H]3O)c2n1 [Compound 2-MeSADP, 2-MeSADP]
change in intracellular Ca2+ in control cells [5]: no change in intracellular Ca^2+

Nc1nc(Cl)nc2c1ncn2[C@H]1[C@H](O)[C@H](O)C2(CSP(=O)(O)O)C[C@H]12 (stereo partly drawn) [Compound 4a]
LV posterior wall thickness (CSQ heart failure mice [2]; [6]): 0.493±0.016 mm
LV septal wall thickness (CSQ heart failure mice [2]; [6]): 0.492±0.012 mm
cardioprotection in CSQ mice (in words) (CSQ heart failure mice [2]; CSQ mice): could protect the CSQ mice
FS in % in CSQ Mice (CSQ heart failure mice [2]): 14.33 ± 3.77%

CP(=O)(O)CC12C[C@@H]1[C@@H](n1cnc3c(N)nc(Cl)nc31)[C@H](O)[C@@H]2O (stereo partly drawn) [Compound 11, (1′S,2′R,3′S,4′R,5′S)-4′-(6-Amino-2-chloropurin-9-yl)-2′,3′-dihydroxy-1′-(methylphosphonicacid)-bicyclo[3.1.0]hexane]
effect on echocardiography-derived FS / cardiac contractile function versus normal saline (in words) (CSQ heart failure mice [1]): lower FS values
FS in % in CSQ Mice (CSQ heart failure mice [1]): 15.0 ± 1.2%

Nc1nc(I)nc2c1ncn2[C@H]1[C@H](O)[C@H](O)C2(CP(=O)(O)O)C[C@H]12 (stereo partly drawn) [Compound 7a, (1′S,2′R,3′S,4′R,5′S)-4′-(6-Amino-2-iodoropurin-9-yl)-2′,3′-(dihydroxy)-1′-(phosphonomethylene)-bicyclo[3.1.0]hexane]
cardioprotection in CSQ mice (in words) (CSQ heart failure mice [2]; CSQ mice): abolished protection; also recorded: not protective
effect on LV fractional shortening versus normal saline (in words) (CSQ heart failure mice [2]; CSQ mice): did not improve FS; also recorded: lower FS values
FS in % in CSQ Mice (CSQ heart failure mice [2]): 10.33 ± 1.77%
prevention of LV wall thinning in heart failure (in words) (CSQ heart failure mice [2]; CSQ mice): did not improve FS or prevent LV wall thinning

CCOP(=O)(CC12C[C@@H]1[C@@H](n1cnc3c(N)nc(Cl)nc31)[C@H](O)[C@@H]2O)OCC (stereo partly drawn) [Compound 9a, Diethyl-(1′S,2′R,3′S,4′R,5′S)-4′-(6-amino-2-chloropurin-9-yl)-2′,3′-(hydroxy)-bicyclo[3.1.0]hexane phosphonate]
cardioprotection in CSQ mice (in words) (CSQ heart failure mice [2]; CSQ mice): not protective
effect on LV fractional shortening versus normal saline (in words) (CSQ heart failure mice [2]; CSQ mice): did not improve FS
FS in % in CSQ Mice (CSQ heart failure mice [2]): 8.58 ± 2.09%
prevention of LV wall thinning in heart failure (in words) (CSQ heart failure mice [2]; CSQ mice): did not improve FS or prevent LV wall thinning
hydrolysis in the presence of mammalian cell membranes [3]: considerable hydrolysis
stability to acidic conditions [4]: stable

Nc1ncnc2c1ncn2[C@H]1[C@H](O)[C@H](O)C2(CCP(=O)(O)O)C[C@H]12 (stereo partly drawn) [Compound 10]
cardioprotection in the CSQ model (in words) (CSQ heart failure mice [1]): not protective
effect on echocardiography-derived FS / cardiac contractile function versus normal saline (in words) (CSQ heart failure mice [1]): lower FS values; also recorded: did not improve the contractile function
FS in % in CSQ Mice (CSQ heart failure mice [1]): 11.15 ± 1.44%

Nc1nc(Cl)nc2c1ncn2[C@H]1[C@H](O)[C@H](O)C2(CCP(=O)(O)O)C[C@H]12 (stereo partly drawn) [Compound 9]
cardioprotection in the CSQ model (in words) (CSQ heart failure mice [1]): clearly protective in vivo
effect on echocardiography-derived FS / cardiac contractile function versus normal saline (in words) (CSQ heart failure mice [1]): improved FS; also recorded: able to enhance cardiac contractile function
FS in % in CSQ Mice (CSQ heart failure mice [1]): 19.26% and 19.26 ± 1.23%
